Test results as given in US20250144067A1, “PERSONALIZED STARVATION THERAPY FOR CANCER” (Faeth Therapeutics, Inc., priority 2021, published 2025).
Where a name gives a salt, the structure may show the parent alone. Read-outs that look alike come from different tables or passages of the source.

Columns and labels:
[1] = system: NCI-H292 lung cancer cells; assay: FDA drug screening, complete media vs cholesterol-free media without statin (TABLE 1); type: cell-based, human
[2] = system: NCI-H292 lung cancer cells; assay: FDA drug screening, complete media vs cholesterol-free media with simvastatin (TABLE 2); type: cell-based, human
[3] = Complete minus Cholesterol-free, >0 enhanced anti-cancer activity, about 0 neutral, <0 antagonist
[4] = NCI-H292 cells, cholesterol-free media without statin
[5] = NCI-H292 cells, FDA drug library screen, cholesterol-free media with simvastatin 0.04 μM
[6] = NCI-H292 cells, FDA drug library screen, complete media
[7] = complete media vs cholesterol-free media + simvastatin (0.04 μM), >0 enhanced anti-cancer activity, about 0 neutral, <0 antagonist
[8] = Complete minus Cholesterol-free, […]
[9] = NCI-H292 cells, FDA drug library screen, cholesterol-free media without statin
[10] = NCI-H292 cells, drug in cholesterol-free media with simvastatin 0.04 μM
[11] = NCI-H292 cells, drug in complete media
[12] = NCI-H292 cells, cholesterol-free media without statin, FDA drug library screen
[13] = NCI-H292 cells, complete media, FDA drug library screen
[14] = complete vs cholesterol-free media, >0 enhanced anti-cancer activity, about 0 neutral, <0 antagonist
[15] = NCI-H292 cells, FDA library drug in cholesterol-free media with simvastatin 0.04 μM
[16] = NCI-H292 cells, FDA library drug in complete media
[17] = NCI-H292 cells, cholesterol-free media with simvastatin 0.04 μM, FDA drug library screen (TABLE 2)
[18] = NCI-H292 cells, complete media, FDA drug library screen (TABLE 2)
[19] = complete media minus cholesterol-free media + simvastatin (0.04 μM), […]
[20] = Complete minus Cholesterol-free, greater than 0 enhanced anti-cancer activity, about 0 neutral, below 0 antagonists
[21] = NCI-H292 cells in cholesterol-free media without statin
[22] = NCI-H292 cells in complete media
[23] = complete media minus cholesterol-free media + simvastatin (0.04 μM), >0 enhanced anti-cancer activity, about 0 neutral, <0 antagonist
[24] = complete media minus cholesterol-free media + simvastatin, […]
[25] = NCI-H292 cells, cholesterol-free media with simvastatin 0.04 μM, cell growth value in FDA drug screen
[26] = NCI-H292 cells, complete media, cell growth value in FDA drug screen
[27] = complete media minus cholesterol-free media + simvastatin, >0 enhanced anti-cancer activity, about 0 neutral, <0 antagonist
[28] = Complete minus Cholesterol-free, greater than 0 enhanced anti-cancer activity, about 0 neutral, below 0 antagonist

CO[C@H]1C[C@H](O[C@@H]2/C(C)=C/C[C@@H]3C[C@@H](C[C@]4(CC[C@H](C)[C@@H](C5CCCCC5)O4)O3)OC(=O)[C@@H]3C=C(C)/C(=N/O)[C@H]4OC/C(=C\C=C\[C@@H]2C)[C@]43O)O[C@@H](C)[C@@H]1O [Selamectin]
Cholesterol-free [1]: −0.000828 | Complete [1]: −0.0121 | Difference [1]: −0.01 | Cholesterol-free media + simvastatin (0.04 μM) [2]: 0.0107 | Complete Media [2]: 0.03346 | Difference [2]: 0.02

CCOCCn1c(C2CCN(CCc3ccc(C(C)(C)C(=O)O)cc3)CC2)nc2ccccc21 [Bilastine]
Difference [1, 3]: −0.27 | Cholesterol-free [1, 4]: 1.435 | Cholesterol-free media + simvastatin (0.04 μM) [2, 5]: 1.167 | Complete Media [2, 6]: 1.071 | Difference [2, 7]: −0.10

Bromocriptine (mesylate)
Difference [1, 8]: −0.12 | Cholesterol-free [1, 9]: 0.9359 | Complete [1, 6]: 0.8127 | Cholesterol-free media + simvastatin (0.04 μM) [2, 10]: 0.9355 | Complete Media [2, 11]: 0.7343 | Difference ([2]; complete media vs cholesterol-free media + simvastatin (0.04 μM), […]): −0.20

CCN1CCN(Cc2ccc(Nc3ncc(F)c(-c4cc(F)c5nc(C)n(C(C)C)c5c4)n3)nc2)CC1 [Abemaciclib]
Cholesterol-free [1, 12]: 0.7212 | Complete [1, 13]: 0.8498 | Difference [1, 14]: 0.13 | Cholesterol-free media + simvastatin (0.04 μM) [2, 15]: 1.011 | Complete Media [2, 16]: 0.6686 | Difference [2, 7]: −0.34

O=c1cccc2n1C[C@@H]1CNC[C@H]2C1 [Cytisinicline]
Cholesterol-free [1]: 1.156 | Complete [1]: 0.9676 | Difference [1]: −0.19 | Cholesterol-free media + simvastatin (0.04 μM) [2]: 1.003 | Complete Media [2]: 1.015 | Difference [2]: 0.01

O=C(Nc1cnn2ccc(N3CCC[C@@H]3c3cc(F)ccc3F)nc12)N1CC[C@H](O)C1 [Larotrectinib sulfate]
Cholesterol-free [1, 12]: 1.525 | Complete [1, 13]: 1.739 | Difference [1, 14]: 0.21 | Cholesterol-free media + simvastatin (0.04 μM) [2, 10]: 1.922 | Complete Media [2, 11]: 1.699 | Difference [2, 7]: −0.22

Cc1coc2c1C(=O)C(=O)c1c-2ccc2c(C)cccc12 [Tanshinone I]
Difference [1, 8]: −0.07 | Cholesterol-free [1, 9]: 0.8572 | Complete [1, 6]: 0.783 | Cholesterol-free media + simvastatin (0.04 μM) [2, 17]: 0.9012 | Complete Media [2, 18]: 0.8645 | Difference [2, 19]: −0.04

CC(C)(CO)c1cc2cc(NC(=O)C3(c4ccc5c(c4)OC(F)(F)O5)CC3)c(F)cc2n1C[C@@H](O)CO [Tezacaftor]
Difference [1, 20]: −0.63 | Cholesterol-free [1, 21]: 1.488 | Complete [1, 22]: 0.8597 | Cholesterol-free media + simvastatin (0.04 μM) [2, 17]: 1.227 | Complete Media [2, 18]: 1.187 | Difference [2, 23]: −0.04

Cc1c(O)cccc1C(=O)N[C@@H](CSc1ccccc1)[C@H](O)CN1C[C@H]2CCCC[C@H]2C[C@H]1C(=O)NC(C)(C)C [Nelfinavir]
Difference [1, 3]: −0.25 | Cholesterol-free [1, 4]: 1.095 | Complete ([1]; NCI-H292 cells, complete media): 0.8463 | Cholesterol-free media + simvastatin (0.04 μM) [2, 15]: 1.243 | Complete Media [2, 16]: 0.8828 | Difference [2, 7]: −0.36

Clc1ccc(C(c2ccccc2Cl)C(Cl)Cl)cc1 (centres unmarked) [Mitotane]
Difference [1, 3]: −0.20 | Cholesterol-free [1, 4]: 1.108 | Complete ([1]; NCI-H292 cells, complete media): 0.9109 | Cholesterol-free media + simvastatin (0.04 μM) [2, 10]: 1.345 | Complete Media [2, 11]: 1.125 | Difference [2, 7]: −0.22

Chondroitin (sulfate)
Difference [1, 8]: −0.48 | Cholesterol-free [1, 21]: 1.247 | Complete [1, 22]: 0.7715 | Cholesterol-free media + simvastatin (0.04 μM) ([2]; NCI-H292 cells, cholesterol-free media with simvastatin 0.04 μM, […]): 1.097 | Complete Media ([2]; NCI-H292 cells, complete media, […]): 1.158 | Difference [2, 24]: 0.06

Varenicline (Tartrate)
Difference [1, 8]: −0.52 | Cholesterol-free [1, 21]: 1.334 | Complete [1, 22]: 0.8157 | Cholesterol-free media + simvastatin (0.04 μM) [2, 17]: 1.729 | Complete Media [2, 18]: 1.705 | Difference [2, 19]: −0.02

CCCOc1ccc(S(=O)(=O)NCCC2CCCN2C)cc1-c1nc2c(CCC)nn(C)c2c(=O)[nH]1 (centres unmarked) [Udenafil]
Difference [1, 3]: −0.28 | Cholesterol-free [1, 4]: 1.473 | Complete ([1]; NCI-H292 cells, complete media): 1.195 | Cholesterol-free media + simvastatin (0.04 μM) [2, 25]: 1.921 | Complete Media [2, 26]: 2.002 | Difference [2, 27]: 0.08

NC[C@H]1O[C@H](O[C@H]2[C@H](O)[C@@H](O[C@H]3O[C@H](CO)[C@@H](O)[C@H](N)[C@H]3O)[C@H](N)C[C@@H]2N)[C@H](N)C[C@@H]1O [Tobramycin]
Cholesterol-free [1, 12]: 1.416 | Complete [1, 13]: 1.802 | Difference [1, 14]: 0.39 | Cholesterol-free media + simvastatin (0.04 μM) [2, 25]: 0.8625 | Complete Media [2, 26]: 0.9069 | Difference [2, 27]: 0.04

Rasagiline (mesylate)
Difference [1, 28]: −0.16 | Cholesterol-free [1, 9]: 0.8816 | Complete [1, 6]: 0.7256 | Cholesterol-free media + simvastatin (0.04 μM) [2, 5]: 1.319 | Complete Media [2, 6]: 1.208 | Difference [2, 7]: −0.11

Fenoldopam (mesylate)
Difference [1, 28]: −0.12 | Cholesterol-free [1, 9]: 0.8131 | Complete [1, 6]: 0.6882 | Cholesterol-free media + simvastatin (0.04 μM) [2, 10]: 1.028 | Complete Media [2, 11]: 0.7708 | Difference [2, 7]: −0.26

COC(=O)[C@H]1[C@H]2C[C@@H]3c4[nH]c5cc(OC)ccc5c4CCN3C[C@H]2C[C@@H](OC(=O)c2cc(OC)c(OC)c(OC)c2)[C@@H]1OC [Reserpine (hydrochloride)]
Cholesterol-free [1, 4]: 1.178 | Complete ([1]; NCI-H292 cells, complete media): 0.8568 | Difference ([1]; complete vs cholesterol-free media, greater than 0 enhanced anti-cancer activity, about 0 neutral, below 0 antagonists): −0.32 | Cholesterol-free media + simvastatin (0.04 μM) [2, 10]: 1.074 | Complete Media [2, 11]: 0.834 | Difference [2, 7]: −0.24

O=C(NCCN1CCOCC1)c1ccc(Cl)cc1 [Moclobemide]
Difference [1, 3]: −0.27 | Cholesterol-free [1, 4]: 1.09 | Complete ([1]; NCI-H292 cells, complete media): 0.8213 | Cholesterol-free media + simvastatin (0.04 μM) [2, 17]: 0.9196 | Complete Media [2, 18]: 0.8957 | Difference [2, 23]: −0.02

Nc1nnc(-c2cccc(Cl)c2Cl)c(N)n1 [Lamotrigine]
Difference [1, 28]: −0.08 | Cholesterol-free [1, 9]: 1.043 | Complete [1, 6]: 0.9644 | Cholesterol-free media + simvastatin (0.04 μM) [2, 15]: 1.437 | Complete Media [2, 16]: 1.093 | Difference [2, 7]: −0.34

NCC(=O)O [Glycine]
Difference [1, 20]: −0.56 | Cholesterol-free [1, 21]: 1.569 | Complete [1, 22]: 1.011 | Cholesterol-free media + simvastatin (0.04 μM) [2, 15]: 1.249 | Complete Media [2, 16]: 0.983 | Difference [2, 7]: −0.27

Pheniramine (Maleate)
Difference [1, 20]: −0.65 | Cholesterol-free [1, 21]: 1.526 | Complete [1, 22]: 0.8791 | Cholesterol-free media + simvastatin (0.04 μM) [2, 17]: 1.33 | Complete Media [2, 18]: 1.284 | Difference [2, 23]: −0.05

C=C1CC[C@@H]2[C@](C)(COC(=O)CCC(=O)[O-])[C@H](OC(=O)CCC(=O)O)CC[C@@]2(C)[C@@H]1/C=C/C1=CCOC1=O.[K+] [Kalii Dehydrographolidi Succinas]
Cholesterol-free [1, 4]: 1.388 | Complete ([1]; NCI-H292 cells, complete media): 1.081 | Difference ([1]; complete vs cholesterol-free media, […]): −0.31 | Cholesterol-free media + simvastatin (0.04 μM) [2, 5]: 0.8904 | Complete Media [2, 6]: 1.183 | Difference [2, 24]: 0.29

CCCCN(CCCC)C(=O)CN1C[C@H](c2ccc3c(c2)OCO3)[C@@H](C(=O)O)[C@@H]1c1ccc(OC)cc1 [Atrasentan (hydrochloride)]
Difference [1, 28]: −0.17 | Cholesterol-free [1, 9]: 1.198 | Complete [1, 6]: 1.025 | Cholesterol-free media + simvastatin (0.04 μM) [2, 10]: 1.092 | Complete Media [2, 11]: 0.8532 | Difference [2, 7]: −0.24

Cc1cc(C2CCCCC2)n(O)c(=O)c1 [Ciclopirox]
Difference [1, 28]: −0.10 | Cholesterol-free [1, 9]: 0.2725 | Complete [1, 6]: 0.1741 | Cholesterol-free media + simvastatin (0.04 μM) [2, 5]: 0.2219 | Complete Media [2, 6]: 0.6804 | Difference [2, 27]: 0.46

COc1cc(/C=C/C(=O)O)ccc1O.[Na] [Ferulic acid (sodium)]
Cholesterol-free [1, 12]: 1.137 | Complete [1, 13]: 1.309 | Difference [1, 14]: 0.17 | Cholesterol-free media + simvastatin (0.04 μM) [2, 17]: 0.806 | Complete Media [2, 18]: 0.766 | Difference [2, 23]: −0.04

CC(C)(C)c1cc(C(C)(C)C)c(NC(=O)c2c[nH]c3ccccc3c2=O)cc1O [Ivacaftor]
Difference [1, 28]: −0.10 | Cholesterol-free [1, 9]: 0.9826 | Complete [1, 6]: 0.878 | Cholesterol-free media + simvastatin (0.04 μM) [2, 5]: 1.021 | Complete Media [2, 6]: 0.931 | Difference [2, 7]: −0.09

Dimemorfan (phosphate)
Difference [1, 8]: −0.08 | Cholesterol-free [1, 9]: 0.9351 | Complete [1, 6]: 0.8552 | Cholesterol-free media + simvastatin (0.04 μM) [2, 17]: 0.9385 | Complete Media [2, 18]: 0.8687 | Difference [2, 19]: −0.07

O=c1[nH]c(=O)n(C2CCCO2)cc1F (centres unmarked) [Tegafur]
Difference [1, 3]: −0.25 | Cholesterol-free [1, 4]: 0.9682 | Complete ([1]; NCI-H292 cells, complete media): 0.7137 | Cholesterol-free media + simvastatin (0.04 μM) [2, 5]: 1.002 | Complete Media [2, 6]: 1.263 | Difference [2, 27]: 0.26
